From ChEMBL document CHEMBL6178003, “Reducing Cardiovascular Side Effects of DMT Using Beta-Blockers” (ACS Med Chem Lett, 2025) come the findings set out here.

SMILES strings stand for the structures.

Data set [1] is described as follows: Half-life in iv dosed human. The data set is classed as ADME, organism-based. The following applies: in vivo.
Data set [2] in a line: Half-life in human. It is filed as ADME.

Broadly, the half-life is the time needed for the level to fall by half in the phase considered. Consider `COC(=O)CCc1ccc(OCC(O)CNC(C)C)cc1` (centres undefined) [ESMOLOL], for which the half-life in data set [1] is roughly 9 min. In data set [2], `CN(C)CCc1c[nH]c2ccccc12` [N,N-DIMETHYLTRYPTAMINE] had a half-life of roughly 10 min. The same measure, in the same setting: with `CCCC(=O)OCOC(=O)C1=C(C)NC(C)=C(C(=O)OC)C1c1cccc(Cl)c1Cl` (centres undefined) [CLEVIDIPINE] the figure was roughly 1 min. On the same count and under the same terms, as for `CC1(C)OC[C@@H](COC(=O)CCc2ccc(OC[C@@H](O)CNCCNC(=O)N3CCOCC3)cc2)O1` [LANDIOLOL], the figure is roughly 4 min.
